In paper PMC12632398 (bioRxiv, 2025):
Non-standard residues stand in square brackets, D forms with d. No end group written: not given here. Dap = NC[C@H](N)C(=O)O

Assays:
[1] = tested on: MCF-7 breast cancer cells; assay: Cell viability assay for MCF-7, CellTiter Glo 2.0; format: cell-based; details: MCF-7 cells, 48 h; positive control compared with MP23
[2] = tested on: Cells that express the HaloTag protein; details: CAPA; ratio of CP50 to that of JQ-1-Ct
[3] = tested on: HaloTag protein in cells; assay: Time-resolved CAPA; format: cell-based; details: 5μM MP1 and 1.62μM JQ1; reproduced in two independent experiments
[4] = tested on: HEK293 cells; assay: Cell viability, CellTiter Glo 2.0, HEK293; format: cell-based; details: 100 μM, 12 hours, CellTiter Glo 2.0, three independent experiments

CC(C)[C@@H](CS(=O)(=O)C(C)C)N1C(=O)[C@@](C)(CC(=O)O)C[C@H](c2cccc(Cl)c2)[C@H]1c1ccc(Cl)cc1 [Navtemadlin] was tested, and the “potency relative to MP23, MCF-7 viability” value [1] was “about ten-fold more potent”.
In the case of “[Dap]AWFK-NH2 (also: sidechain bridge or staple (positions not given here)) [MP1-Ct]”, the “fold higher (poorer) CP50 than JQ-1-Ct” value [2] is reported as 3.4 fold, the “kinetics of HaloTag protein alkylation, time-resolved CAPA” value [3] is reported as “relatively rapid” and the “effect on the viability of HEK293 cells” value [4] is reported as “no effect”.
